Data set [1] has as its system Streptococcus pneumoniae. Kind of data set: Antibacterial activity against Methicillin resistant Streptococcus pneumoniae ATCC 700677 assessed as reduction in bacterial cell growth incubated for 18 to 20 hrs by broth microdilution method. The format is functional.
For another data set, the system named is Pseudomonas aeruginosa. Kind of data set: Antibacterial activity against Pseudomonas aeruginosa ATCC 15442 assessed as reduction in bacterial cell growth incubated for 18 to 20 hrs by broth microdilution method. Format: functional. (Dilution methods test growth across graded concentrations, often in twofold steps.)
The test system of data set [2] is Staphylococcus aureus. Nature of the data set: Bactericidal activity against vancomycin resistant Staphylococcus aureus VRS12 assessed as reduction in bacterial cell growth incubated for 18 to 20 hrs followed by re-plating on tryptic soy agar plates at 37 degC for 18 hrs by broth microdilution assay. Format: functional.
The test system of data set [3] is Staphylococcus aureus. Nature of the data set: Bactericidal activity against vancomycin resistant Staphylococcus aureus VRS10 assessed as reduction in bacterial cell growth incubated for 18 to 20 hrs followed by re-plating on tryptic soy agar plates at 37 degC for 18 hrs by broth microdilution assay. Format: functional.
Data set [4] has as its system Listeria monocytogenes. Kind of data set: Antibacterial activity against Listeria monocytogenes ATCC 19111 assessed as reduction in bacterial cell growth incubated for 18 to 20 hrs by broth microdilution method. The format is functional.
For data set [5], the system named is Staphylococcus aureus. Nature of the data set: Antibacterial activity against methicillin-resistant Staphylococcus aureus USA400 assessed as reduction in CFU at 4 x MIC preincubated for 12 hrs in Tryptic soy broth followed by incubation for 18 to 20 hrs on TSA plate by time-kill assay. The format is functional.
Another data set concerns J774. Nature of the data set: Cytotoxicity against mouse J774 cells reduction in cell viability up to 32 ug/ml incubated for 24 hrs by MTS assay. As to conditions: j774, 24 h. The format is cell-based. (Tetrazolium assays rely on reduction of a dye to a coloured formazan, in cell work by metabolically active cells.)
Data set [6] concerns Staphylococcus aureus. Nature of the data set: Antibacterial activity against Staphylococcus aureus ATCC 6538 assessed as reduction in bacterial cell growth incubated for 18 to 20 hrs by broth microdilution method. Format: functional.
Data set [7] concerns Staphylococcus aureus. Nature of the data set: Antibacterial activity against methicillin-resistant Staphylococcus aureus USA400 assessed as reduction in CFU at 4 x MIC preincubated for 24 hrs in Tryptic soy broth followed by incubation for 18 to 20 hrs on TSA plate by time-kill assay. The format is functional, organism-based.
Data set [8] relates to Staphylococcus aureus. Nature of the data set: Resistance index, ratio of MIC for antibacterial activity against methicillin-resistant Staphylococcus aureus USA400 treated repeatedly over 6 passages to MIC for antibacterial activity against methicillin-resistant Staphylococcus aureus USA400 treated for 18 to 20 hrs by broth microdilution assay. Format: functional.
Another data set has as its system Escherichia coli. Nature of the data set: Antibacterial activity against Escherichia coli BW25113 assessed as reduction in bacterial cell growth incubated for 18 to 20 hrs by broth microdilution method. Format: functional.
Data set [9] relates to Streptococcus pneumoniae. Nature of the data set: Ratio of MBC to MIC for Methicillin resistant Streptococcus pneumoniae ATCC 700677 by broth microdilution method. The format is functional.
In data set [10] the test system is Staphylococcus aureus. Kind of data set: Ratio of MBC to MIC for Staphylococcus aureus ATCC 6538 by broth microdilution assay. Format: functional.
Data set [11] deals with Staphylococcus aureus. Kind of data set: Ratio of MBC to MIC for Staphylococcus aureus NRS107 by broth microdilution assay. Format: functional.
The next data set concerns Enterococcus faecalis. Nature of the data set: Ratio of MBC to MIC for vancomycin resistant Enterococcus faecalis ATCC 51299 by broth microdilution method. Format: functional.
For the next data set, the system named is Enterococcus faecium. Kind of data set: Ratio of MBC to MIC for vancomycin resistant Enterococcus faecium ATCC 700221 by broth microdilution method. The format is functional.
For data set [12], the system named is Streptococcus pneumoniae. Kind of data set: Ratio of MBC to MIC for Cephalosporin resistant Streptococcus pneumoniae ATCC 51916 by broth microdilution method. The format is functional.
For data set [13], the system named is Listeria monocytogenes. Nature of the data set: Ratio of MBC to MIC for Listeria monocytogenes ATCC 19111 by broth microdilution assay. Format: functional.
Data set [14] deals with Staphylococcus aureus. Kind of data set: Antibacterial activity against methicillin-resistant Staphylococcus aureus USA400 treated over 14 passages by broth microdilution assay. Format: functional, organism-based.
The subject of data set [15] is Staphylococcus aureus. Kind of data set: Antibacterial activity against methicillin-resistant Staphylococcus aureus USA400 assessed as reduction in CFU at 4 x MIC preincubated for 6 hrs in Tryptic soy broth followed by incubation for 18 to 20 hrs on TSA plate by time-kill assay. The format is functional, organism-based.

The record followed here is ChEMBL document CHEMBL4393697, “Lipophilic efficient phenylthiazoles with potent undecaprenyl pyrophosphatase inhibitory activity” (Eur J Med Chem, 2019).

Values after ≈ are worked out from the molar mass of the structure shown. Active and inactive are the calls of the source. A value given as a limit tells only on which side of the number the result lay.

Take `C/C(=N\NC(=N)N)c1sc(-c2ccc(C#Cc3ccc(N)cc3)cc2)nc1C`: the MIC is 16 µg/mL (≈ 41.2 µM) in the data set with Streptococcus pneumoniae [1]; > 64 µg/mL with Pseudomonas aeruginosa; 32 µg/mL (≈ 82.4 µM) in the data set on Listeria monocytogenes [4]; 2 µg/mL (≈ 5.15 µM) in the data set on Staphylococcus aureus [6]; > 64 µg/mL in the data set with Escherichia coli. Also, the MBC in the data set with Staphylococcus aureus [2] and in the data set on Staphylococcus aureus [3] was 32 µg/mL (≈ 82.4 µM) each time. Further, the Activity with Staphylococcus aureus [5] was 3 log10CFU; in the data set with J774 it was “Non-Toxic”. Besides, the inhibition entry in the data set with Staphylococcus aureus [7] is “Active”. Also, the Ratio in the data set with Staphylococcus aureus [8] amounted to 1.

Consider `C/C(=N\NC(=N)N)c1sc(-c2ccc(C#CC(C)(C)O)cc2)nc1C`, for which the Ratio with Streptococcus pneumoniae [9], in the data set on Staphylococcus aureus [10], in the data set on Staphylococcus aureus [11], with Enterococcus faecalis, in the data set on Enterococcus faecium and in the data set with Streptococcus pneumoniae [12] was 2 in each case. Further, the Ratio with Listeria monocytogenes [13] is 2. In addition, the MIC in the data set with Streptococcus pneumoniae [1] is 4 µg/mL (≈ 11.3 µM); with Pseudomonas aeruginosa, > 64 µg/mL; in the data set with Listeria monocytogenes [4], 4 µg/mL (≈ 11.3 µM); with Staphylococcus aureus [6], 2 µg/mL (≈ 5.63 µM); with Escherichia coli, > 64 µg/mL. Besides, the MBC in the data set with Staphylococcus aureus [2] and with Staphylococcus aureus [3] was 16 µg/mL (≈ 45 µM) each time.

Consider `C/C(=N\NC(=N)N)c1sc(-c2ccc(C#Cc3ccc(C)s3)cc2)nc1C`, for which the MIC in the data set on Streptococcus pneumoniae [1] is 8 µg/mL (≈ 20.3 µM); in the data set on Pseudomonas aeruginosa, > 64 µg/mL; with Listeria monocytogenes [4] it was 8 µg/mL (≈ 20.3 µM); in the data set on Staphylococcus aureus [6] it was 4 µg/mL (≈ 10.2 µM); in the data set on Escherichia coli, 64 µg/mL (≈ 163 µM). The minimal bactericidal concentration (MBC) worked out at 16 µg/mL (≈ 40.7 µM) with Staphylococcus aureus [2] and 8 µg/mL (≈ 20.3 µM) with Staphylococcus aureus [3]. Also, the Activity in the data set on Staphylococcus aureus [5] is recorded as 3 log10CFU. Moreover, in the data set on Staphylococcus aureus [7], the inhibition result was “Active”. Also, the Ratio in the data set on Staphylococcus aureus [8] is listed as 1.

As for `C/C(=N\NC(=N)N)c1sc(-c2ccc(C#CC3(O)CCCCC3)cc2)nc1C`, the Ratio in the data set with Streptococcus pneumoniae [9], in the data set on Staphylococcus aureus [10], in the data set with Staphylococcus aureus [11], with Enterococcus faecalis, in the data set with Enterococcus faecium and in the data set with Streptococcus pneumoniae [12] was 2 in each case. The Ratio with Listeria monocytogenes [13] is 2. The MIC was 4 µg/mL (≈ 10.1 µM) in the data set with Streptococcus pneumoniae [1]; > 64 µg/mL in the data set on Pseudomonas aeruginosa; 4 µg/mL (≈ 10.1 µM) in the data set on Listeria monocytogenes [4]; 2 µg/mL (≈ 5.06 µM) in the data set on Staphylococcus aureus [6]; > 64 µg/mL in the data set on Escherichia coli. Also, the MBC with Staphylococcus aureus [2] and with Staphylococcus aureus [3] was 8 µg/mL (≈ 20.2 µM) each time. Further, in the data set with Staphylococcus aureus [14], the outcome was Active. Besides, the inhibition result with Staphylococcus aureus [15] was “Active”.

One may read the MIC as the smallest concentration in the dilution series that meets the test's criterion for growth inhibition. Broadly, the MBC is the lowest tested concentration that kills the bacteria rather than only halting them.
